Experimental data as given in ChEMBL document CHEMBL1201862, “PubChem BioAssay data set” (2004).
Calls of active or inactive are those of the source.

Legend:
[1] = biological target: 5-hydroxytryptamine receptor 1E (Homo sapiens, UniProt P28566); test: Counterscreen assay for S1P3 antagonists: Dose response cell-based high throughput screening assay to identify antagonists of the 5-Hydroxytryptamine Receptor Subtype 1E (5HT1E). [Related pubchem assays: 1429, 485 ]; assay type: functional
[2] = biological target: Sphingosine 1-phosphate receptor 3 (Homo sapiens, UniProt Q99500); test: Dose response cell-based high throughput screening assay for antagonists of the Sphingosine 1-Phosphate Receptor 3 (S1P3). [Related pubchem assays: 1429, 485 ]; assay type: functional
[3] = biological target: Neuropeptide Y receptor type 1 (Homo sapiens, UniProt P25929); assay type: functional;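 further: HEK293 cells with a CNG channel challenged with NPY then isoproterenol; potency as antagonist that reverses NPY suppression of cAMP signal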
[4] = biological target: Luciferin 4-monooxygenase (Photinus pyralis, UniProt P08659); test: firefly luciferase enzyme inhibitors, dose response, biochemical, luminescence (AID 1891)
[5] = Luminescence Cell-Based Dose Confirmation HTS to Identify Inhibitors of Platelet Dense Granule Release. [Related pubchem assays: 1663 (Primary HTS), 1678 (Summary of Project)]; assay type: functional
[6] = biological target: Neuropeptide Y receptor type 2 (Homo sapiens, UniProt P49146); assay type: functional, cell-based;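 further: HEK293 cells expressing the receptor and a CNG channel; stimulus was NPY near EC95 followed by isoproterenol to raise cAMP; antagonist potency measured as restoring cAMP signal that NPY suppresses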
[7] = biological target: Peroxisome proliferator-activated receptor gamma/Nuclear receptor coactivator 2 (Homo sapiens, UniProt P37231); assay type: functional;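 further: agonist potency for raising coactivator recruitment to the receptor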
[8] = biological target: Peroxisome proliferator-activated receptor gamma/Nuclear receptor coactivator 1 (Homo sapiens, UniProt P37231); assay type: functional;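 further: agonist potency as compounds enhance coactivator SRC-1 recruitment to PPARgamma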
[9] = biological target: Peroxisome proliferator-activated receptor gamma/Nuclear receptor coactivator 3 (Homo sapiens, UniProt P37231); assay type: functional;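 further: agonist potency for raising coactivator recruitment to the receptor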
HeLa = test: Cytotoxicity counterscreen assay for transcriptional activators of heat shock protein 70 (Hsp70). [Related pubchem assays: 1203, 1252 ]; assay type: functional; conditions: Homo sapiens;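 further: cells exposed to compound for 16 hours before readout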
[10] = A High Throughput Confirmatory Assay used to Identify Novel Compounds that Inhibit Mycobacterium Tuberculosis in the absence of Glycerol.; assay type: functional
[11] = microbe, parasite or virus in culture; assay type: functional; conditions: Mycobacterium tuberculosis

Chain of Sphingosine 1-phosphate receptor 3 (Q99500 whole entry): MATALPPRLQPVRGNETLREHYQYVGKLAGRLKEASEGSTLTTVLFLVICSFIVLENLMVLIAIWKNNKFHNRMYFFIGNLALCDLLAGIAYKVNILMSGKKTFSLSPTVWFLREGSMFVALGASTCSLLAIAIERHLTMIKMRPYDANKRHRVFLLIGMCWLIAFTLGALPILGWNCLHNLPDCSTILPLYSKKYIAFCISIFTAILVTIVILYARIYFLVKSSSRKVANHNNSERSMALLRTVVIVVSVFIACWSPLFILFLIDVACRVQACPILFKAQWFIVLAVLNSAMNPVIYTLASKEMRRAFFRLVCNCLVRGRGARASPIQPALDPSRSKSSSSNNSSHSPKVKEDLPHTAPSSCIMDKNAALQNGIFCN
Chain of Neuropeptide Y receptor type 2 (P49146 whole entry): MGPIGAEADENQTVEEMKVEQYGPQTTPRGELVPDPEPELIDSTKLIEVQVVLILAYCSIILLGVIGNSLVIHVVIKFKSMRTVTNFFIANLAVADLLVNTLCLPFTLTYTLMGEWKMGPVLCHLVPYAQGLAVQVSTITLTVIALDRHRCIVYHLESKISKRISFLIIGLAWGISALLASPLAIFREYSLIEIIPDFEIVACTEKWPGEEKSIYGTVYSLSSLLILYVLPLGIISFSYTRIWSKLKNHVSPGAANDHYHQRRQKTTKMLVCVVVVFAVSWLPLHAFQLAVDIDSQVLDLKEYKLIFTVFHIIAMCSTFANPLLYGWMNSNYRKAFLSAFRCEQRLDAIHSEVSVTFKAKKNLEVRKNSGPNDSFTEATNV
Chain of 5-hydroxytryptamine receptor 1E (P28566 whole entry): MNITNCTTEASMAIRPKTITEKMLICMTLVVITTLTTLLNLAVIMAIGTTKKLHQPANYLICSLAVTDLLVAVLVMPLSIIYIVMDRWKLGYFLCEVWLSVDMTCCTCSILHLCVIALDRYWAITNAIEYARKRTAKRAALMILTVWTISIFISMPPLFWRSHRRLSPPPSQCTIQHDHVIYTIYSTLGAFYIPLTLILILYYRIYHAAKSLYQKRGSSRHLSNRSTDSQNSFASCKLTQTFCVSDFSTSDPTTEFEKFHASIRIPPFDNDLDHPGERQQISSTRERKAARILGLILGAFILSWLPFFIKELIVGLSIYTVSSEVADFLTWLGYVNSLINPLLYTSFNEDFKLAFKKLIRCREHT
Chain of Neuropeptide Y receptor type 1 (P25929 whole entry): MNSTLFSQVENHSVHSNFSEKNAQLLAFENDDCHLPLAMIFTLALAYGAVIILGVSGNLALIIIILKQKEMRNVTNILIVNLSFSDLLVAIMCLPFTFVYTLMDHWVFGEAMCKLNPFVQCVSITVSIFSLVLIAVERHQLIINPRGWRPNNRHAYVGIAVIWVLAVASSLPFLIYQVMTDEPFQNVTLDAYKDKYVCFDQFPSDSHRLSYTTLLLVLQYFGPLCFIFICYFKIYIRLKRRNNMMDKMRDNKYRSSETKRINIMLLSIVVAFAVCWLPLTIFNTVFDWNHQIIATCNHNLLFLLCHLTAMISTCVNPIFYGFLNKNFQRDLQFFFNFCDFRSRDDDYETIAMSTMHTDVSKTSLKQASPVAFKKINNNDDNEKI
Chain of Luciferin 4-monooxygenase (P08659 whole entry): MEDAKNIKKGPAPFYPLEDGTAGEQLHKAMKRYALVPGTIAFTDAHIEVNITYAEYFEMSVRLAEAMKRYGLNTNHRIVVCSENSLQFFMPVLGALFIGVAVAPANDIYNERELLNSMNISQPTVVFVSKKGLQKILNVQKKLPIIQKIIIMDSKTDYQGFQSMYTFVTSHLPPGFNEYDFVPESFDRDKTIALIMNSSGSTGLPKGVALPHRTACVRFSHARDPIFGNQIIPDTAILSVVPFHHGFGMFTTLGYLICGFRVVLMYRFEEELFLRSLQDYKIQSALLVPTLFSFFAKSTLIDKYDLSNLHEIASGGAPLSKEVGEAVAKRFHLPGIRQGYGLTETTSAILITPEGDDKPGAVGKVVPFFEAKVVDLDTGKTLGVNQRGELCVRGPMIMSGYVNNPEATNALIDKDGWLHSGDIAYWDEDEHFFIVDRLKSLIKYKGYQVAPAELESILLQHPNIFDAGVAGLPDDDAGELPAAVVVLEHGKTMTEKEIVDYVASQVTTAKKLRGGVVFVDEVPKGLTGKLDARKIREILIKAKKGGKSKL
Chain of Peroxisome proliferator-activated receptor gamma/Nuclear receptor coactivator 1 (P37231 whole entry): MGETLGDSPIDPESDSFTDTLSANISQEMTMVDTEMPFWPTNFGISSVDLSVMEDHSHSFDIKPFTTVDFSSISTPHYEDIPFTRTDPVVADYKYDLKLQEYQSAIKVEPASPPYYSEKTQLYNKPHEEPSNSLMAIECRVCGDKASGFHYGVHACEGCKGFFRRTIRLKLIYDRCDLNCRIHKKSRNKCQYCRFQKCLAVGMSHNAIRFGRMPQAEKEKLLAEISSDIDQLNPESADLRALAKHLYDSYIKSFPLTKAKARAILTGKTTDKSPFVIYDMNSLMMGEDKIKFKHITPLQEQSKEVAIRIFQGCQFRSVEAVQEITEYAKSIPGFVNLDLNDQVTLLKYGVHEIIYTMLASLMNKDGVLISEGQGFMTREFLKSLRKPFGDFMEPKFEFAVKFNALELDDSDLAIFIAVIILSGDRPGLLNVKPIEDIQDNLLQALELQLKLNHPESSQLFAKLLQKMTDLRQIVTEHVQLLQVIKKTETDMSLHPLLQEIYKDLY
Chain of Peroxisome proliferator-activated receptor gamma/Nuclear receptor coactivator 1 (Q15788 whole entry, further chain): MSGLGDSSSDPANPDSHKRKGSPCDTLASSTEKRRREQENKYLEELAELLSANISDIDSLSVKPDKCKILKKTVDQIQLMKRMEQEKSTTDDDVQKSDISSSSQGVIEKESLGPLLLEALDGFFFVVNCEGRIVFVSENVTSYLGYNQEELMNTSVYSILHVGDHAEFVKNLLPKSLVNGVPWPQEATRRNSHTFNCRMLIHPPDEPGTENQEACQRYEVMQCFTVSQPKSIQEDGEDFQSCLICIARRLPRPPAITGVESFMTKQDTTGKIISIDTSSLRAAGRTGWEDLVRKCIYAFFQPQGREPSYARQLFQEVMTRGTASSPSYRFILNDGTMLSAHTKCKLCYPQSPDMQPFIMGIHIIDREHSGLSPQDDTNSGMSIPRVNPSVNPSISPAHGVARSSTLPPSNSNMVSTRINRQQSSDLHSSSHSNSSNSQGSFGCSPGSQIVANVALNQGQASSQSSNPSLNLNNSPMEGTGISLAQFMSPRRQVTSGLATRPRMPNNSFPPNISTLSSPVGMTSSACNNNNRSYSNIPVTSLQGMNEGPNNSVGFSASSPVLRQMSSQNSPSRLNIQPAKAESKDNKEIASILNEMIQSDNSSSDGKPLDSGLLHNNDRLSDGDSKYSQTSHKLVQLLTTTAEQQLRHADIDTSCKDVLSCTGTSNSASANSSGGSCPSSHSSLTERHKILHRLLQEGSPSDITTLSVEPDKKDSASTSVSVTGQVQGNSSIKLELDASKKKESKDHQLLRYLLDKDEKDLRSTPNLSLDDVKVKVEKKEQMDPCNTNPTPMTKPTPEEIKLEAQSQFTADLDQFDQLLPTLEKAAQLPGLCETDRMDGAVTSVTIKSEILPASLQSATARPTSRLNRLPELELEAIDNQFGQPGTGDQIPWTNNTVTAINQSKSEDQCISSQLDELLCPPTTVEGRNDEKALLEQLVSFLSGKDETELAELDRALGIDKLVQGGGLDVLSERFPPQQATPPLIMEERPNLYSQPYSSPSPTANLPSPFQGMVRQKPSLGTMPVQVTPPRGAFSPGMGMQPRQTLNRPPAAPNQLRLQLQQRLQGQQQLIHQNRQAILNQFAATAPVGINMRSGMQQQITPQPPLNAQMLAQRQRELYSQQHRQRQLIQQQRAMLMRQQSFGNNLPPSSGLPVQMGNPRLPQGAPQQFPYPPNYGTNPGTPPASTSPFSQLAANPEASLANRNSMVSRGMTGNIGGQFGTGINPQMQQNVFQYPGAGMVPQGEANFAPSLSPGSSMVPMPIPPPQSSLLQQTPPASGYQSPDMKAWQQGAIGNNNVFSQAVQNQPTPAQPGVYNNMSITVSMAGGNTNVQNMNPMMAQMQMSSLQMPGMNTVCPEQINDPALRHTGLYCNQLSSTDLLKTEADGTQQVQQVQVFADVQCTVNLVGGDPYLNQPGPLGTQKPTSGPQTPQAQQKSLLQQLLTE

Cc1ccc(NC(=O)C(c2ccccc2)C2CCCC2)cc1 (configuration not stated)
IC50 [1]: 7.06 µM (active)
IC50 [2]: 2.43 µM (active)

COc1cc(/C=N/NC(N)=O)ccc1OCC(=O)Nc1ccc(C)c(C)c1
IC50 [3]: > 35 µM (not active)
EC50 [4]: > 112 µM (not active)
EC50 [5]: 11.4 µM (active)
IC50 [6]: 9.83 µM (active)

CCOc1cccc(C(=O)Nc2nnc(-c3cccs3)s2)c1
EC50 [7]: 22.2 µM (not active)
EC50 [8]: 24.1 µM (not active)
EC50 [9]: 30.3 µM (not active)

CC(CC1CC(C)(C)OC1=O)C(=O)Nc1ccc([N+](=O)[O-])cc1 (configuration not stated)
CC50 (HeLa): > 99 µM (not active)

CC(C)NC(=S)N/N=C/c1c[nH]c2ccccc12
IC50 [10]: > 100 µM (active)
CC50 [11]: > 40 µM (active)
